The values that follow come from ChEMBL document CHEMBL5291721, “A preclinical secondary pharmacology resource illuminates target-adverse drug reaction associations of marketed drugs” (Nat Commun, 2023).

The term AC50 denotes the concentration giving half of the maximal activity seen.

The target in experiment [1] is Sodium-dependent serotonin transporter (Homo sapiens, UniProt P31645).
Experiment [2] has as its target Gamma-aminobutyric acid receptor subunit alpha-1/alpha-2/beta-2/gamma-2 (Homo sapiens, UniProt P14867+P18507+P47869+P47870). The class given is protein-complex assay.
Experiment [3] has as its target T1, 5-hydroxytryptamine receptor 1A (Homo sapiens, UniProt P08908).
T1 sequence (P08908 whole entry): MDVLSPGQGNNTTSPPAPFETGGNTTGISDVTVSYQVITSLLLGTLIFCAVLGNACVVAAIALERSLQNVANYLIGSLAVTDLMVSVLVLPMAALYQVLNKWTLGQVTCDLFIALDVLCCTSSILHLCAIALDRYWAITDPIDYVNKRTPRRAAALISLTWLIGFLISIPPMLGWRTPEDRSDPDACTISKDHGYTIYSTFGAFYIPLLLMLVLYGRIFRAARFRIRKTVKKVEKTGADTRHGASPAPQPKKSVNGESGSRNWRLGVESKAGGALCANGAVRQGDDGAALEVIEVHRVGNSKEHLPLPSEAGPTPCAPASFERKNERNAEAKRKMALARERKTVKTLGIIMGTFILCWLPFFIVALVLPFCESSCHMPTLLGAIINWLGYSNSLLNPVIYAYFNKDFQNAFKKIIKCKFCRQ

The target of experiment [4] is 5-hydroxytryptamine receptor 2B (Homo sapiens, UniProt P41595).
Sequence of 5-hydroxytryptamine receptor 2B (P41595 whole entry): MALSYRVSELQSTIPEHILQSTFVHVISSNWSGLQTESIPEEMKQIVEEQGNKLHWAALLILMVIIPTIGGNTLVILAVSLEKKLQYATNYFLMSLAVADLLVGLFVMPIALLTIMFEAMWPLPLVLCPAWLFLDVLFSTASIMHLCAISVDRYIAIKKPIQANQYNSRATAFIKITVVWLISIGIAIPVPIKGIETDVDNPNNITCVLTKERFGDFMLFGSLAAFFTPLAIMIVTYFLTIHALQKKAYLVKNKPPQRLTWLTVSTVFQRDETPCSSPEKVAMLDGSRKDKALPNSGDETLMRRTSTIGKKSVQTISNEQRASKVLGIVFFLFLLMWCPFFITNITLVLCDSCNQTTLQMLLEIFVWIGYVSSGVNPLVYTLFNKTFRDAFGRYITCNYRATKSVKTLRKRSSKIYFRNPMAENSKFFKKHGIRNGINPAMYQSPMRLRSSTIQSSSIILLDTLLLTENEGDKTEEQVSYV
The target of experiment [5] is 5-hydroxytryptamine receptor 2A (Homo sapiens, UniProt P28223). The class given is functional, cell-based.
Sequence of 5-hydroxytryptamine receptor 2A (P28223 whole entry): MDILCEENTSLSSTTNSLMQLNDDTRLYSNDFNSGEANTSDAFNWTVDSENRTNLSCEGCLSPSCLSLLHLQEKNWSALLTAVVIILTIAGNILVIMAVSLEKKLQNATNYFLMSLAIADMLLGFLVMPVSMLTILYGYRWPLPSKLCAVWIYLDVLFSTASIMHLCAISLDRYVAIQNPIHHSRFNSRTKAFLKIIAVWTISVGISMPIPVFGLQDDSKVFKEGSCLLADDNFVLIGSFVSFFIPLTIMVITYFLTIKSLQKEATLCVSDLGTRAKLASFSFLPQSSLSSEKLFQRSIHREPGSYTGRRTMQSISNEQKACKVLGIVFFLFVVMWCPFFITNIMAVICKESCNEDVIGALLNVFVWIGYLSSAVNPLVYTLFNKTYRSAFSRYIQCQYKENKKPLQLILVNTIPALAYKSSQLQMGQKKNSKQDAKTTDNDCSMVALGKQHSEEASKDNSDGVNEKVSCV
Note: assay procedure not described here.

Sequence of Gamma-aminobutyric acid receptor subunit alpha-1/alpha-2/beta-2/gamma-2 (P14867 whole entry): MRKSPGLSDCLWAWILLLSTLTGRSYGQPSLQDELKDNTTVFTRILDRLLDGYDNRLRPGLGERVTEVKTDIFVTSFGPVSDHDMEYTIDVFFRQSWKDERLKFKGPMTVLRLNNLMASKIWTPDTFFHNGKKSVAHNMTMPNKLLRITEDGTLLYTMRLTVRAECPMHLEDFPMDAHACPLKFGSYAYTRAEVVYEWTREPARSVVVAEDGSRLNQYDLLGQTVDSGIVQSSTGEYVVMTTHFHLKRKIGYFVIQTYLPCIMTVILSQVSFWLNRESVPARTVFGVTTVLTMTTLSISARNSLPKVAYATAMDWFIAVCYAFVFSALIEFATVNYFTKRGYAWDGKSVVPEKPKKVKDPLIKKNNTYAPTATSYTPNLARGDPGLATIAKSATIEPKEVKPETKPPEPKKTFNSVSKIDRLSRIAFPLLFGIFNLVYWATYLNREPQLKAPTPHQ
Sequence of Gamma-aminobutyric acid receptor subunit alpha-1/alpha-2/beta-2/gamma-2 (P47870 whole entry): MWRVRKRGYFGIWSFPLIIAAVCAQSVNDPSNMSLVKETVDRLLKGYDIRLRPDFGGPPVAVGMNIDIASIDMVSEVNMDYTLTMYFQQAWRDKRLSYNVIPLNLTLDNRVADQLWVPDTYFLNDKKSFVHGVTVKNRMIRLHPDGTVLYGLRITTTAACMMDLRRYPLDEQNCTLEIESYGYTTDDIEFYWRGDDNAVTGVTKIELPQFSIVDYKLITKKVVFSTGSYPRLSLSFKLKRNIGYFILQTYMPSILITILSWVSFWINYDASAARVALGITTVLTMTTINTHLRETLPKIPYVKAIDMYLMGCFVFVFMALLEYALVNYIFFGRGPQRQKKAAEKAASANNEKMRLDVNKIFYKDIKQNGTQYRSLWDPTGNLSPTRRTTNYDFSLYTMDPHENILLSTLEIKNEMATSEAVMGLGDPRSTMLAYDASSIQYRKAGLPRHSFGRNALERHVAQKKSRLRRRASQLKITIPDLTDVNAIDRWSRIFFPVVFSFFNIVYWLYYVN
Sequence of Gamma-aminobutyric acid receptor subunit alpha-1/alpha-2/beta-2/gamma-2 (P18507 whole entry): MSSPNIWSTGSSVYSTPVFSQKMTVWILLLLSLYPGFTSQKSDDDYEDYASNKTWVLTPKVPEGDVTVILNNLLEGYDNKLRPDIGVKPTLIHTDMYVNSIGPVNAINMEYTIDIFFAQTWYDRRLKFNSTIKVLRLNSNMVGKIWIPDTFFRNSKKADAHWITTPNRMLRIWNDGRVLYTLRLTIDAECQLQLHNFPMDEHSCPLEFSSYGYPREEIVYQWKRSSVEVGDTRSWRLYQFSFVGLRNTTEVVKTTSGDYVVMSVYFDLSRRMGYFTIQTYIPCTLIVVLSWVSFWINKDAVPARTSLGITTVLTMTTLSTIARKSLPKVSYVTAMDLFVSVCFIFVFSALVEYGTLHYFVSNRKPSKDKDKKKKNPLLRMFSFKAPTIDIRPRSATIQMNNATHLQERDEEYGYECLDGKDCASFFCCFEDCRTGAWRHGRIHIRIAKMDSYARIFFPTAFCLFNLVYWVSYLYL
Sequence of Gamma-aminobutyric acid receptor subunit alpha-1/alpha-2/beta-2/gamma-2 (P47869 whole entry): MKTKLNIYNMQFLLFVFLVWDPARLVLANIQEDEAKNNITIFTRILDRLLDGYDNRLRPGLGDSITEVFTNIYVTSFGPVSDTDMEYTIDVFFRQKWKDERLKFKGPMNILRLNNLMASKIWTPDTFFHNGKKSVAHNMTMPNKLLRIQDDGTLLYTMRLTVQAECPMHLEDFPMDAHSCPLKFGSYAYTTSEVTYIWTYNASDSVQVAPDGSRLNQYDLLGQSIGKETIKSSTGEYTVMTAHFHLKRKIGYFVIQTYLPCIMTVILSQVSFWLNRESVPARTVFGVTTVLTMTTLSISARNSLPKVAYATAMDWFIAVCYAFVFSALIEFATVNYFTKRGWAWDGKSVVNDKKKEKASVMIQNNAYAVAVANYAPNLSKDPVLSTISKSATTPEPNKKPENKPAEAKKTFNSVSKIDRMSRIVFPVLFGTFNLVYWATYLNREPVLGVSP
Sequence of Sodium-dependent serotonin transporter (P31645 whole entry): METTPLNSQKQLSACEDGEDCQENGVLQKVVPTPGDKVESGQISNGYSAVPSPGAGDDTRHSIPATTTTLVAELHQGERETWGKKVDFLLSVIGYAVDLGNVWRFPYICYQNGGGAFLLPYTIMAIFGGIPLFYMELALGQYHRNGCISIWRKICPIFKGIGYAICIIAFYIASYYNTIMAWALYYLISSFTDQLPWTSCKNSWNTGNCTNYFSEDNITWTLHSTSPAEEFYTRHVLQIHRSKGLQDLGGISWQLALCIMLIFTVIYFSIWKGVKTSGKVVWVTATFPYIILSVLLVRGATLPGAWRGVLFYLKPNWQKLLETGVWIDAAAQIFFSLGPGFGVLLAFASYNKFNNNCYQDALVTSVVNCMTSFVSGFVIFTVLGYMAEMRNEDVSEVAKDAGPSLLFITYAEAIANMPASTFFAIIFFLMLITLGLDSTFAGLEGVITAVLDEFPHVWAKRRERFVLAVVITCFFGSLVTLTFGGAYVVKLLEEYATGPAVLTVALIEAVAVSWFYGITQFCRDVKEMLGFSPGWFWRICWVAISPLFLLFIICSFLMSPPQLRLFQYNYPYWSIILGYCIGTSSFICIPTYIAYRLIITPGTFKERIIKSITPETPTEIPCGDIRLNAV

Take `CC(C)N(CCNC(=O)CN1CCCC1=O)C(C)C`: the concentration at half-maximal activity (AC50) in experiment [1] and in experiment [2] was above 30 µM in each case.
As to `CCC[C@H](NC(=O)[C@@H]1[C@H]2CCC[C@H]2CN1C(=O)[C@@H](NC(=O)[C@@H](NC(=O)c1cnccn1)C1CCCCC1)C(C)(C)C)C(=O)C(=O)NC1CC1`, the AC50 in experiment [3] and in experiment [4] was above 10 µM throughout.
For the molecule `Cc1cc(N)c2ccccc2[n+]1CCCCCCCCCC[n+]1c(C)cc(N)c2ccccc21`, in experiment [1], the concentration at half-maximal activity (AC50) was 0.185 µM.
For the molecule `CCOC(=O)[C@H](CCc1ccccc1)N[C@@H](C)C(=O)N(CC(=O)O)C1Cc2ccccc2C1`, the AC50 in experiment [1] is above 30 µM.
`CC(=O)N[C@@H](CS)C(=O)O` [ACETYLCYSTEINE] showed an AC50 in experiment [5] above 30 µM.
In experiment [5], `C=CCNc1nc(NCC=C)nc(N2CCN(C(c3ccc(F)cc3)c3ccc(F)cc3)CC2)n1` [ALMITRINE] had a half-maximal activity concentration (AC50) above 30 µM.
With `C=CCSCC1Nc2cc(Cl)c(S(N)(=O)=O)cc2S(=O)(=O)N1` (stereo not drawn) [ALTHIAZIDE], the AC50 in experiment [1] is above 30 µM.
For `CCN(CCCc1ccccc1)CCCc1ccccc1` [ALVERINE], the AC50 was 1.7 µM in experiment [1] and above 30 µM in experiment [2].
As for `CN1CCC(=C2c3ccccc3CCc3cccnc32)CC1` [AZATADINE], the AC50 in experiment [3] was 5.69 µM.
On to `CCCCC(=O)O[C@]1(C(=O)CO)[C@@H](C)C[C@H]2[C@@H]3CCC4=CC(=O)C=C[C@]4(C)[C@@]3(F)[C@@H](O)C[C@@]21C` [BETAMETHASONE VALERATE], for which the AC50 in experiment [3] was above 10 µM.
In experiment [5], `C/N=C(\NC)NCc1ccccc1` [BETHANIDINE] gave an AC50 above 30 µM.
For the molecule `COc1cc(N2CCC(N3CCN(C)CC3)CC2)ccc1Nc1ncc(Cl)c(Nc2ccccc2P(C)(C)=O)n1` [BRIGATINIB], the AC50 in experiment [1] is above 30 µM.
Same read-out and setting: the figure for `CN(C)CCOC(c1ccccc1)c1ccc(Br)cc1` (stereo not drawn) [BROMODIPHENHYDRAMINE] is 0.207 µM.
In experiment [5], `CCC(C)C1(CC)C(=O)NC(=O)NC1=O` (stereo not drawn) [BUTABARBITAL] registered an AC50 above 30 µM.
In experiment [5], `COCC1=C(C(=O)O)N2C(=O)[C@@H](NC(=O)/C(=N\OC)c3csc(N)n3)[C@H]2SC1` [CEFPODOXIME] displayed an AC50 above 30 µM.
The molecule `CC1OC2(CS1)CN1CCC2CC1` (stereo not drawn) [CEVIMELINE] returned an AC50 in experiment [5] above 10 µM.
As to `CNC1=Nc2ccc(Cl)cc2C(c2ccccc2)=[N+]([O-])C1` [CHLORDIAZEPOXIDE], the AC50 in experiment [3] is above 10 µM.
For `NC(=O)OCC(O)COc1ccc(Cl)cc1` (stereo not drawn) [CHLORPHENESIN CARBAMATE], the half-maximal activity concentration (AC50) in experiment [1] is above 30 µM.
Consider `COc1cc(N)c(Cl)cc1C(=O)NC1CCN(Cc2ccccc2)CC1` [CLEBOPRIDE], for which the AC50 is 0.0079 µM in experiment [4] and above 30 µM in experiment [5].
Consider `Cc1ccccc1N1CCN(CCc2nnc3n2CCCC3)CC1` [DAPIPRAZOLE], for which the AC50 in experiment [2] was above 30 µM.
In experiment [5], `Nc1ncn([C@H]2C[C@H](O)[C@@H](CO)O2)c(=O)n1` [DECITABINE] returned an AC50 above 30 µM.
In the case of `CC(C)(C)C(=O)OCC(=O)[C@H]1CC[C@H]2[C@@H]3CCC4=CC(=O)CC[C@]4(C)[C@H]3CC[C@]12C` [DESOXYCORTICOSTERONE PIVALATE], in experiment [5], the AC50 is above 10 µM.
On to `CCN(CC)C(=S)S` [DITIOCARB], for which the AC50 in experiment [1] is above 30 µM.
The molecule `CCOC(=O)c1cncn1[C@H](C)c1ccccc1` [ETOMIDATE] returned an AC50 in experiment [5] above 10 µM.
The same measure, in the same setting: for `C[C@]12CCC(=O)C(O)=C1CC[C@@H]1[C@@H]2CC[C@]2(C)C(=O)CC[C@@H]12` [FORMESTANE] the value was above 30 µM; for `C[C@]12CC[C@@H]3c4ccc(O)cc4C[C@@H](CCCCCCCCC[S+]([O-])CCCC(F)(F)C(F)(F)F)[C@H]3[C@@H]1CC[C@@H]2O` (stereo partly drawn) [FULVESTRANT], above 30 µM; for `CCC1(c2ccccc2)CCC(=O)NC1=O` (stereo not drawn) [GLUTETHIMIDE], above 30 µM.
Regarding `CCC(=O)O[C@]1(C(=O)CCl)[C@@H](C)C[C@H]2[C@@H]3C[C@H](F)C4=CC(=O)C=C[C@]4(C)[C@@]3(F)[C@@H](O)C[C@@]21C` [HALOBETASOL PROPIONATE], the half-maximal activity concentration (AC50) in experiment [1] and in experiment [2] was above 30 µM each time.
Molecule `CC(N)Cc1ccc(O)cc1` (stereo not drawn) [HYDROXYAMPHETAMINE] displayed an AC50 in experiment [1] above 30 µM.
As for `Cc1cc(NC(=O)C2=C(O)c3ccccc3S(=O)(=O)N2C)no1` [ISOXICAM], the half-maximal activity concentration (AC50) in experiment [1] was above 30 µM.
With `COc1cc2c(cc1OC)CC(=O)N(CCCN(C)C[C@H]1Cc3cc(OC)c(OC)cc31)CC2` [IVABRADINE], the activity in experiment [1] was half-maximal at 11.9 µM (AC50).
Take `Oc1ccc2c(c1)CC[C@H](c1ccccc1)[C@@H]2c1ccc(OCCN2CCCC2)cc1` [LASOFOXIFENE]: the values for the half-maximal activity concentration (AC50) in experiment [4] and in experiment [5] were 0.272 µM and 12 µM, respectively.
Take `CC(C)(C)NC[C@H](O)COc1cccc2c1CCCC2=O` [LEVOBUNOLOL]: the AC50 in experiment [2] is above 30 µM.
In experiment [5], `C[C@H](Cc1ccc(O)c(O)c1)[C@@H](C)Cc1ccc(O)c(O)c1` [MASOPROCOL] displayed an AC50 above 30 µM.
Turning to `Cc1c(N(C)CS(=O)(=O)O)c(=O)n(-c2ccccc2)n1C` [METAMIZOLE], the AC50 in experiment [2] was above 30 µM.
In the case of `CN1C(=O)/C(=N\NC(N)=S)c2ccccc21` [METHISAZONE], in experiment [1], the concentration at half-maximal activity (AC50) was above 30 µM.
With `COC(=O)c1ccc(O)cc1` [METHYLPARABEN], the AC50 in experiment [2] was above 30 µM.
Regarding `CN(C)CCCNc1c2ccccc2nc2cccc([N+](=O)[O-])c12` [NITRACRINE], in experiment [4], the concentration at half-maximal activity (AC50) turned out to be 0.2 µM.
Regarding `O=[N+]([O-])c1ccc(O)c2ncccc12` [NITROXOLINE], the AC50 in experiment [1] and in experiment [5] was above 30 µM in each case.
Molecule `C#C[C@]1(OC(C)=O)CC[C@H]2[C@@H]3CCC4=C/C(=N/O)CC[C@@H]4[C@H]3CC[C@@]21CC` [NORGESTIMATE] displayed an AC50 in experiment [5] above 30 µM.
Turning to `CCCc1nc(C(C)(C)O)c(C(=O)O)n1Cc1ccc(-c2ccccc2-c2nnn[nH]2)cc1` [OLMESARTAN], the concentration at half-maximal activity (AC50) in experiment [1] and in experiment [2] was above 30 µM throughout.
As to `NCC(CC(=O)O)c1ccccc1` (stereo not drawn) [PHENIBUT], the AC50 in experiment [1] was above 30 µM.
Take `Clc1ccc2c(N3CCN(CCCN4CCN(c5ccnc6cc(Cl)ccc56)CC4)CC3)ccnc2c1` [PIPERAQUINE]: in experiment [5], the AC50 is above 30 µM.
In experiment [3], `CCCN[C@H]1CCc2nc(N)sc2C1` [PRAMIPEXOLE] returned an AC50 of 10.5 µM. That is a double-digit micromolar value.
With `Cc1ncc(COP(=O)(O)O)c(C=O)c1O` [PYRIDOXAL PHOSPHATE ANHYDROUS], the half-maximal activity concentration (AC50) in experiment [1] and in experiment [2] was above 30 µM in each case.
For the molecule `c1ccc2c(c1)CCc1ccccc1N2C1CN2CCC1CC2` (stereo not drawn) [QUINUPRAMINE], the AC50 is 0.507 µM in experiment [1] and above 30 µM in experiment [2].
Consider `CNCc1ccc(-c2[nH]c3cc(F)cc4c3c2CCNC4=O)cc1` [RUCAPARIB], for which, in experiment [5], the AC50 is above 10 µM.
As to `C[C@H](Cc1cc2c(c(C(N)=O)c1)N(CCCO)CC2)NCCOc1ccccc1OCC(F)(F)F` [SILODOSIN], the AC50 in experiment [1] and in experiment [2] was above 30 µM in each case.
Take `CC1=CCC(C(C)(C)O)CC1O` (stereo not drawn) [SOBREROL]: the AC50 in experiment [1] and in experiment [2] was above 30 µM throughout.
In turn, `CC1(C)S[C@@H]2[C@H](NC(=O)[C@H](N)c3ccccc3)C(=O)N2[C@H]1C(=O)OCOC(=O)[C@@H]1N2C(=O)C[C@H]2S(=O)(=O)C1(C)C` [SULTAMICILLIN] had a concentration at half-maximal activity (AC50) in experiment [5] above 30 µM.
Regarding `CCOC(=O)N1CSC[C@H]1C(=O)O` [TELMESTEINE], the AC50 in experiment [1] and in experiment [2] was above 30 µM in each case.
Turning to `CCC(=O)O[C@H]1CC[C@H]2[C@@H]3CCC4=CC(=O)CC[C@]4(C)[C@H]3CC[C@]12C` [TESTOSTERONE PROPIONATE], the AC50 in experiment [5] is above 30 µM.
The molecule `Clc1ccc(C(Cn2ccnc2)OCc2ccsc2Cl)c(Cl)c1` (stereo not drawn) [TIOCONAZOLE] registered a concentration at half-maximal activity (AC50) in experiment [5] above 30 µM.
The same measure, in the same setting: for `Cc1cccc(N2CC(CO)OC2=O)c1` (stereo not drawn) [TOLOXATONE] the value was above 30 µM; for `CC(C)[C@H](N)C(=O)OCC(CO)OCn1cnc2c(=O)nc(N)[nH]c21` (stereo partly drawn) [VALGANCICLOVIR], above 30 µM.
For `CCC(C)C(CC)C(N)=O` (stereo not drawn) [VALNOCTAMIDE], the AC50 in experiment [5] is above 30 µM.
As for `CCCC(CCC)C(N)=O` [VALPROMIDE], the AC50 in experiment [3] was above 10 µM.
For the molecule `CCOC(=O)C1=C[C@]2(CC)CCCN3CCc4c(n1c1ccccc41)[C@@H]32` [VINPOCETINE], the AC50 in experiment [4] and in experiment [5] was above 30 µM each time.
Regarding `Cc1cc(C(C)(C)C)cc(C)c1CC1=NCCN1` [XYLOMETAZOLINE], in experiment [4], the AC50 came to 1.56 µM.
